Structures can show the parent of a compound that is named as a salt.

As a reminder, the IC50 is the concentration that gives 50% inhibition.

The first test relates to Aβ1-42 production in H4 cells stably transfected with APP751 containing the Swedish mutation. In words: Cellular assay for inhibition of Aβ1-42 production (H4 APP751 SWE clone 8.20). The format is cell-based. The settings on record: 19 h, H4 APP751 SWE clone 8.20 cells, 19 h incubation; read-out: Aβ42 cellular IC50. As for the experimental part: Cellular Assays for Inhibition of Aβ1-40 and Aβ1-42 Production
H4 cells stably transfected with APP751 containing the Swedish mutation (H4 APP751 SWE clone 8.20, developed at BMS) were maintained in log phase through twice weekly passage at a 1:20 split. […] Following incubation for 19 h in 5% CO2 at 37° C., plates were briefly centrifuged (1000 rpm, 5 min). A 10 μl aliquot from each well was transferred to a second assay plate (Costar 3709) for Aβ40 measurements. Antibody cocktails were freshly prepared by dilution into 40 mM Tris-HCl (pH 7.4) with 0.2% BSA and added to assay plates. For Aβ42 measurements, antibodies specific for the Aβ42 neoepitope (565, developed at BMS; conjugated to the Wallac reagent (Perkin Elmer)) and the N-terminal sequence of Aβ peptide (26D6, developed at SIBIA; conjugated to APC (Perkin Elmer)) were mixed and 20 μl of the mixture was added to each well of the incubated cell plate yielding a final concentration of 0.8 ng/well 565 and 75 ng/well 26D6. For the Aβ40 measurements, antibodies specific for the Aβ40 neoepitope (TSD, developed at BMS; conjugated to the Wallac reagent (Perkin Elmer)) and 26D6 as described above were mixed and 20 μl of the mixture was added to the 10 μl aliquots which had been removed previously from the cell plate yielding a final concentration of 1.6 ng/well TSD and 17.5 ng/well 26D6. Assay plates containing antibodies were sealed with aluminum foil and incubated overnight at 4° C. Signal was determined using a Viewlux counter (Perkin Elmer) and IC50 values determined using curve fitting in CurveMaster (Excel Fit based).
For `Cc1ncc(-c2ccc3c(c2)[C@@]2(C)N=C(N)SC[C@H]2CCO3)s1` (relative stereo) [Example 26, rel-(4aS,11bS)-11b-Methyl-10-(2-methylthiazol-5-yl)-4a,5,6,11b-tetrahydro-4H-benzo[2,3]oxepino[4,5-d][1,3]thiazin-2-amine, 2,2,2-trifluoroacetate salt], the IC50 is 8.5 µM.

Turning to `C[C@]12N=C(N)SC[C@H]1CCOc1ccc(-c3cncnc3)cc12` (relative stereo) [Example 27, rel-(4aS,11bS)-11b-methyl-10-(pyrimidin-5-yl)-4a,5,6,11b-tetrahydro-4H-benzo[2,3]oxepino[4,5-d][1,3]thiazin-2-amine, bis(2,2,2-trifluoroacetate)], the IC50 stood at 2.9 µM.

Regarding `C[C@]12N=C(N)SC[C@H]1CCOc1ccc(-c3cc4cc(C#N)ccc4[nH]3)cc12` (relative stereo) [Example 28, rel-2-((4aS,11bS)-2-amino-11b-methyl-4a,5,6,11b-tetrahydro-4H-benzo[2,3]oxepino[4,5-d][1,3]thiazin-10-yl)-1H-indole-5-carbonitrile, 2,2,2-trifluoroacetate salt], the IC50 was found to be 9.7 µM.

As for `C[C@]12N=C(N)SC[C@H]1CCOc1ccc(-c3cncc4ccccc34)cc12` (relative stereo) [Example 29, rel-(4aS,11bS)-10-(isoquinolin-4-yl)-11b-methyl-4a,5,6,11b-tetrahydro-4H-benzo[2,3]oxepino[4,5-d][1,3]thiazin-2-amine, bis(2,2,2-trifluoroacetate)], the IC50 stood at 4.6 µM.

With `C[C@]12N=C(N)SC[C@H]1CCOc1ccc(-c3c[nH]c4ccccc34)cc12` (relative stereo) [Example 30, rel-(4aS,11bS)-10-(1H-indol-3-yl)-11b-methyl-4a,5,6,11b-tetrahydro-4H-benzo[2,3]oxepino[4,5-d][1,3]thiazin-2-amine, 2,2,2-trifluoroacetate salt], the IC50 came to 16 µM.

For `COc1ccc(-c2cn(-c3ccc4c(c3)[C@@]3(C)N=C(N)SC[C@H]3CCO4)cn2)cc1` (relative stereo) [Example 31, rel-(4aS,11bS)-10-(4-(4-Methoxyphenyl)-1H-imidazol-1-yl)-11b-methyl-4a,5,6,11b-tetrahydro-4H-benzo[2,3]oxepino[4,5-d][1,3]thiazin-2-amine, bis(2,2,2-trifluoroacetate)], the IC50 turned out to be 9.4 µM.

As to `C[C@]12N=C(N)SC[C@H]1CCOc1ccc(-n3cccn3)cc12` (relative stereo) [Example 32, rel-(4aS,11bS)-11b-Methyl-10-(1H-pyrazol-1-yl)-4a,5,6,11b-tetrahydro-4H-benzo[2,3]oxepino[4,5-d][1,3]thiazin-2-amine, 2,2,2-trifluoroacetate], the IC50 turned out to be 11 µM.

As to `C[C@]12N=C(N)SC[C@H]1CCOc1ccc(NC(=O)c3ccc(Cl)cn3)cc12` (relative stereo) [Example 33, rel-N-((4aS,11bS)-2-amino-11b-methyl-4a,5,6,11b-tetrahydro-4H-benzo[2,3]oxepino[4,5-d][1,3]thiazin-10-yl)-5-chloropicolinamide, 2,2,2-trifluoroacetate salt], the IC50 is 0.034 µM.

In the case of `C[C@]12N=C(N)SC[C@H]1CCOc1ccc(NC(=O)c3ncc(Cl)cc3Cl)cc12` (relative stereo) [Example 34, rel-N-((4aS,11bS)-2-Amino-11b-methyl-4a,5,6,11b-tetrahydro-4H-benzo[2,3]oxepino[4,5-d][1,3]thiazin-10-yl)-3,5-dichloropicolinamide, 2,2,2-trifluoroacetate salt], the IC50 is 0.026 µM.

As to `C[C@]12N=C(N)SC[C@H]1CCOc1ccc(NC(=O)c3ccc(C#N)cn3)cc12` (relative stereo) [Example 35, rel-N-((4aS,11bS)-2-Amino-11b-methyl-4a,5,6,11b-tetrahydro-4H-benzo[2,3]oxepino[4,5-d][1,3]thiazin-10-yl)-5-cyanopicolinamide, 2,2,2-trifluoroacetate salt], the IC50 came out at 0.028 µM.

Turning to `C[C@]12N=C(N)SC[C@H]1CCOc1ccc(NC(=O)c3ccc(F)cn3)cc12` (relative stereo) [Example 36, rel-N-((4aS,11bS)-2-Amino-11b-methyl-4a,5,6,11b-tetrahydro-4H-benzo[2,3]oxepino[4,5-d][1,3]thiazin-10-yl)-5-fluoropicolinamide, 2,2,2-trifluoroacetate salt], the IC50 was 0.085 µM.

Consider `C[C@]12N=C(N)SC[C@H]1CCOc1ccc(Nc3ncccc3Cl)cc12` (relative stereo) [Example 37, rel-(4aS,11bS)—N10-(3-Chloropyridin-2-yl)-11b-methyl-4a,5,6,11b-tetrahydro-4H-benzo[2,3]oxepino[4,5-d][1,3]thiazine-2,10-diamine, bis(2,2,2-trifluoroacetate)], for which the IC50 came to 1.4 µM.

With `COc1cccnc1Nc1ccc2c(c1)[C@@]1(C)N=C(N)SC[C@H]1CCO2` (relative stereo) [Example 38, rel-(4aS,11bS)—N10-(3-Methoxypyridin-2-yl)-11b-methyl-4a,5,6,11b-tetrahydro-4H-benzo[2,3]oxepino[4,5-d][1,3]thiazine-2,10-diamine, bis(2,2,2-trifluoroacetate)], the IC50 was 1.3 µM.

As to `C[C@]12N=C(N)SC[C@H]1CCOc1ccc(Nc3ncccc3C#N)cc12` (relative stereo) [Example 39, rel-2-(((4aS,11bS)-2-Amino-11b-methyl-4a,5,6,11b-tetrahydro-4H-benzo[2,3]oxepino[4,5-d][1,3]thiazin-10-yl)amino)nicotinonitrile, bis(2,2,2-trifluoroacetate)], the IC50 is above 30 µM.

Consider `C[C@]12N=C(N)SC[C@H]1CCOc1ccc(Nc3ncnc4ccccc34)cc12` (relative stereo) [Example 40, rel-(4aS,11bS)-11b-Methyl-N10-(quinazolin-4-yl)-4a,5,6,11b-tetrahydro-4H-benzo[2,3]oxepino[4,5-d][1,3]thiazine-2,10-diamine, bis(2,2,2-trifluoroacetate)], for which the IC50 was found to be 15 µM.

With `C[C@]12N=C(N)SC[C@H]1CCOc1ccc(Nc3nccc4ccccc34)cc12` (relative stereo) [Example 41, rel-(4aS,11bS)—N10-(Isoquinolin-1-yl)-11b-methyl-4a,5,6,11b-tetrahydro-4H-benzo[2,3]oxepino[4,5-d][1,3]thiazine-2,10-diamine, bis(2,2,2-trifluoroacetate)], the IC50 stood at 16 µM.

Consider `COc1ccnc(Nc2ccc3c(c2)[C@@]2(C)N=C(N)SC[C@H]2CCO3)n1` (relative stereo) [Example 42, rel-(4aS,11bS)—N10-(4-Methoxypyrimidin-2-yl)-11b-methyl-4a,5,6,11b-tetrahydro-4H-benzo[2,3]oxepino[4,5-d][1,3]thiazine-2,10-diamine, bis(2,2,2-trifluoroacetate)], for which the IC50 was 1.5 µM.

As to `C[C@]12N=C(N)SC[C@H]1CCCc1cc(F)c(-c3cncnc3)cc12` (relative stereo) [Example 47, rel-(4aS,11bS)-9-fluoro-11b-methyl-10-(pyrimidin-5-yl)-4,4a,5,6,7,11b-hexahydrobenzo[6,7]cyclohepta[1,2-d][1,3]thiazin-2-amine, bis(2,2,2-trifluoroacetate)], the IC50 turned out to be 2.7 µM.

Take `NC1=N[C@@H]2c3cc(-c4cncnc4)ccc3CCC[C@@H]2CS1` [Example 1a, (4aS,11bS)-10-Pyrimidin-5-yl-4,4a,5,6,7,11b-hexahydro-3-thia-1-aza-dibenzo[a,c]cyclohepten-2-ylamine]: the IC50 is 1.9 µM.

`NC1=N[C@H]2c3cc(-c4cncnc4)ccc3CCC[C@H]2CS1` [Example 1b, (4aR,11bR)-10-Pyrimidin-5-yl-4,4a,5,6,7,11b-hexahydro-3-thia-1-aza-dibenzo[a,c]cyclohepten-2-ylamine]: the IC50 stood at 28 µM.

For the molecule `C[C@]12N=C(N)SC[C@H]1CCCc1ccc(NC(=O)c3ccc(Cl)cn3)cc12` [Example 3a, 5-Chloro-pyridine-2-carboxylic acid ((4aS,11bS)-2-amino-11b-methyl-4,4a,5,6,7,11b-hexahydro-3-thia-1-aza-dibenzo[a,c]cyclohepten-10-yl)-amide], the IC50 was determined as 0.0088 µM.

For `C[C@@]12N=C(N)SC[C@@H]1CCCc1ccc(NC(=O)c3ccc(Cl)cn3)cc12` [Example 3b, 5-Chloro-pyridine-2-carboxylic acid ((4aR,11bR)-2-amino-11b-methyl-4,4a,5,6,7,11b-hexahydro-3-thia-1-aza-dibenzo[a,c]cyclohepten-10-yl)-amide], the IC50 amounted to 6.7 µM.

On to `C[C@@]12N=C(N)SC[C@@H]1CCc1ccc(NC(=O)c3ccc(Cl)cn3)cc12` [Example 7a, N-((4aR,10bR)-2-Amino-10b-methyl-4a,5,6,10b-tetrahydro-4H-naphtho[1,2-d][1,3]thiazin-9-yl)-5-chloropicolinamide], for which the IC50 amounted to 3.5 µM.

Staying with this test, now noted: H4 APP751 SWE clone 8.20 cells, 19 h incubation; read-out: Aβ42 cellular IC50.
Take `C[C@@]12N=C(N)SC[C@@H]1CCOc1ccc(NC(=O)c3ccc(C#N)cn3)cc12` (stereo in doubt) [Example 35a, N-((4aR,11bR)-2-amino-11b-methyl-4a,5,6,11b-tetrahydro-4H-benzo[2,3]oxepino[4,5-d][1,3]thiazin-10-yl)-5-cyanopicolinamide]: the IC50 stood at 5.1 µM.

The record behind these values is US8604024B2, “Compounds for the reduction of beta-amyloid production” (Bristol-Myers Squibb Company, priority 2011, dated 2013).
